Assay results as given in patent US20050170052A1, “Water and feed preservative for animal uses” (priority 2004, published 2005).
Read-outs that look alike come from different tables or passages of the source.

Legend:
E. coli [1] = assay: Biocidal effect of terpenes in organic preservative-free apple juice (Example 7); format: cell-based; conditions: 250 ppm in unpasteurized apple juice, E. coli added, one week room temperature
Method: To 100 ml of unpasteurized apple juice was added different concentration of terpenes varying from 0 to 250 ppm. After mixing, 0.5 ml of 1×10^6 cfu E. coli was added to each juice/terpene mixture and incubated at room temperature for a week. After incubation, 0.1 ml of each of the solutions was plated onto nutrient agar and incubated for 18 hours at 37° C. Results are expressed as cfu/ml and percent reduction as compared to control.

E. coli [2] = conditions: cited from earlier work
[3] = format: physicochemical; conditions: buffer, 1000 ppm
Method: (§1) A solution containing 1000 ppm citral in distilled water was homogenized with a high speed homogenizer. This solution was stored in a beaker covered with porous paper for a week. The concentration of citral remaining after a week was determined by a gas chromatography. A standard curve was prepared with reagent grade citral to which b-ionone was used as internal standard. At the beginning of the study and after a week the concentration of citral was determined by plotting it on the standard curve.

[4] = format: physicochemical; conditions: buffer, 1000 ppm; remark: listed apart in the source
Method: as §1, with “closed glass bottle” for “beaker covered with porous paper”, “four weeks. Concentration” for “a week. The concentration”, “remaining” for “remaining after a week”, “weekly” for “after a week”

SMILES | % reduction (E. coli [1]) | cfu/ml (E. coli [1]) | citral concentration in growth media that reduced the concentration of E. coli (E. coli [2]) | citral concentration with bactericidal effect (E. coli [2]; growth media) | Percentage of citral remaining, Week 1 ([3]; 1 week) | Percentage of citral remaining, Day 1 ([3]; 1 day) | Percentage of citral remaining, Week 1 ([4]; 1 week) | Percentage of citral remaining, Week 2 ([4]; 2 week) | Percentage of citral remaining, Week 4 ([4]; 4 week) | Percentage of citral remaining, Day 1 ([4]; 1 day)
CC(=O)/C=C/C1=C(C)CCCC1(C)C [B-ionone] | 100% | 0 cfu/ml |  |  |  |  |  |  |  | 
CC(C)=CCCC(C)=CC=O [Citral, citral] | 100% | 0 cfu/ml | more than 0.01% | 0.08% | 21.5% | 100% | 32% | 27% | 22% | 100%
